Test results as given in patent US8809377B2, “Deubiquitinase inhibitors and methods for use of the same” (The Regents of the University of Michigan, priority 2010, dated 2014).

Experiments:
Format in all cases: cell-based
[1] = test system: p53; assay: p53 immunoblot; conditions: Z138 cells
Method: Whole cell lysates were prepared by boiling and sonicating the cell pellets in 1× Laemmli reducing sample buffer. To prepare detergent soluble and insoluble fractions, cells were lysed in cold isotonic lysis buffer [10 mM Tris-HCl (pH 7.5), 0.5% Triton X-100, 150 mM NaCl along with Mini-Complete and PhosSTOP] for 15 min on ice and centrifuged 10 minutes at 20,000 RCF. The clarified supernatant was used as a source of the detergent soluble cell fraction. The detergent insoluble fraction was extracted by the sonication of residual pellet in equal volumes of boiling 1× Laemmli reducing sample buffer. Equal volumes of cellular lysate or equal protein amounts were electrophoresed on SDS-PAGE gels.
An increase in p53 protein levels was observed upon WP1130 treatment. Co-treatment of Z138 cells with cycloheximide (50 μg/mL) and WP1130 confirmed the stabilization rather than induction of p53 protein. Furthermore, a rapid decline in MCL-1 levels upon WP1130 treatment was observed. To re-confirm the role played by USP9x and USP5 in regulating the levels of MCL-1 and p53 respectively, a siRNA based knockdown of USP9x and USP5 in HEK293T cells was performed.

[2] = target: T1, UCH37 (Homo sapiens, UniProt Q9Y5K5); assay: HA-UbVs labeling of UCH37; conditions: Z138 cells, 1, 5 or 10 μM, 1 hour
T1 construct: endogenous in cells; host or cells: Z138
Method: To assay for changes in activity of cellular deubiquitinase enzymes, Z138 and HEK293 cells were lysed in DUB buffer (50 mM Tris pH 7.4, 5 mM MgCl2, 150 mM NaCl) for 10 min at 4° C. The lysates were centrifuged at 20,000 RFC for 10 min and the supernatant was used for DUB labeling. Equal amounts of lysate were incubated with 500 ng of HA-UbVs for 1 hr at room temperature, followed by boiling in reducing sample buffer and resolving by SDS-PAGE. After protein transfer to nitrocellulose membranes, HA immunoblotting was used to detect DUB labeling.
Hemagglutinin-tagged ubiquitin vinyl methyl sulfone (HA-UbVs) acts as a DUB suicide substrate, forming a covalent adduct with active DUB enzymes. Specific cellular DUBs can be identified by anti-HA blotting, as previously shown in various cell types. Changes in specific DUB activities are measurable by monitoring HA-labeling in lysates from control and treated cells. Z138 cells were treated with WP1130 at 1, 5, or 10 μM or AG490 at 250 μM for 1 hours and lysed. 20 μg of clarified supernatant was incubated with 200 nM of HA-UbVS for 1 hr at 37° C. […] An in vitro analysis using cell lysates was performed to investigate direct DUB inhibition by WP1130. Briefly, untreated Z138 cell lysates were incubated with 5 μM WP1130 or vehicle alone for one hour at 37° C., followed by labeling with HA-UbVs.

[3] = test system: cellular DUB activity; assay: DUB activity of lysates from treated cells (Ub-AMC, Ub chain disassembly)
Method: Cells were lysed in ice cold DUB buffer containing 50 mM Tris-HCl, pH 7.5, 0.5% NP-40, 5 mM MgCl2, 150 mM NaCl and 1 mM phenylmethylsulfonylfluoride. Briefly, 5 μg of clarified lysate from untreated or treated cells was incubated with 500 nM Ub-AMC in a 100 μL reaction volume at 37° C. and the release of AMC fluorescence was recorded at ex/em 380/480 using a spectrofluorometer. USP9x was immunoprecipitated from 500 μg of cell lysate and incubated in DUB buffer containing NEM, WP1130 or DMSO in a 100 μL reaction volume for 30 min. The reaction was initiated by the addition of 500 nM Ub-AMC and the release of AMC-fluorescence was recorded.
In vitro disassembly of purified polyubiquitin chains (K-48/K-63 linked) was performed as previously described. Five μg of lysate from untreated or WP1130 treated cells were prepared in DUB buffer and incubated with K48- or K-63 linked chains (1 μg) for 10 min at 37° C. The extent of chain disassembly was assessed by ubiquitin immunoblotting.
Inhibition of cellular deubiquitinases could lead to an increase in high molecular weight ubiquitinated proteins in the absence of proteasome inhibition. […] To directly assess the impact of WP1130 on DUB activity in treated cells, cell lysates from control and treated cells were incubated with ubiquitin-AMC and fluorescence generated as a consequence of substrate cleavage was measured as an indicator of DUB activity.
The effect of WP1130 treatment on in vitro deubiquitination/disassembly of purified K48-linked or K63-linked polyubiquitin chains was evaluated. Lysates from WP1130 treated (2 hr) or untreated cells were incubated with 1 μg of unanchored polyubiquitin chains for 5, 10 and 15 min at 37° C.

T1 sequence (Q9Y5K5 whole entry): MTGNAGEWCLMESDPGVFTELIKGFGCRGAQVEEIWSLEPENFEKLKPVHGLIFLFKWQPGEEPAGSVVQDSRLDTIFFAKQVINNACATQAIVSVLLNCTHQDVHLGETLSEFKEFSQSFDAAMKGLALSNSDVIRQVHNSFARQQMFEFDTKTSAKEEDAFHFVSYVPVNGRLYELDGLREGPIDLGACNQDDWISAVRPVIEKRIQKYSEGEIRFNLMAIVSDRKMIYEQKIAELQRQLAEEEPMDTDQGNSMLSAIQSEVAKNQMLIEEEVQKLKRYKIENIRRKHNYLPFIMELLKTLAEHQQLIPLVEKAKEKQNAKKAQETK

CCC[C@H](NC(=O)/C(C#N)=C/c1cccc(Br)n1)c1ccccc1 [WP1130]
p53 protein levels [1]: increase | HA-UbVS labeling of UCH37 [2]: dose-dependent and time reduction in the labeling | Ub-AMC hydrolyzing activity of lysates from treated cells ([3]; CML cells, WP1130 1-8 hours): limited effects | reduction of DUB activity (ubiquitin-AMC) ([3]; Z138 cells, 5 μM WP1130 or 50 nM bortezomib, by 4 hours): ~50% | disassembly of K48-/K63-linked polyubiquitin chains by lysates ([3]; lysates from cells treated 2 hr): limited disassembly
